{
  "source": "patent US20040067932A1",
  "about": "(priority 2002, published 2004)",
  "key": {"[1]": {"system": "human melanoma A375 cell line", "experiment": "MTT growth inhibitory assay, A375", "format": "cell-based", "details": "for IC50: Homo sapiens", "protocol": "(§3) One of the growth inhibitory assays is the MTT assay. Cells (1000-1500 cells/well) are seeded in a 96-well micro culture plate in a total volume of 100 μl/well. After overnight incubation in a humidified incubator at 37° C. with 5% CO2-95% air, chemotherapeutic drug solutions diluted with culture medium at various concentrations are added in the amount of 100 μl to each well. The plates are placed in a humidified incubator at 37° C. with 5% CO2-95% air for 7-10 days. The plates are then centrifuged briefly and 100 μl of the growth medium is removed. Cell cultures are incubated with 50 μl of MTT [3-(4,5-dimethylthiazol-2-yl)-2,5-diphenyl-tetrazolium bromide] reagent (1 mg/ml in Dulbecco's phosphate-buffered saline) for 4 hr at 37° C. The resultant purple formazan precipitate is solubilized with 200 μl of 0.04 N HCl in isopropanol. Absorbance is measured at a wavelength of 595 nm and at a reference wavelength of 655 nm using a Bio-Rad Model 3550 Microplate Reader. Preferably, all tests are run in duplicate for each dose level.\n(§4) The EZED50 computer program estimates the concentration of agent that inhibits cell growth by 50% as compared to the control cells. This is termed the IC50 and is determined by curve fitting test data using the following four logistic equation. [formula]\n(§5) Inhibitory assay testing is also used to determine enhanced therapeutic effects from combining A3 receptor antagonists with other tumor inhibiting agents. The inhibitory cell growth assays are run with and without selected concentrations of A3 receptor antagonists. An enhanced therapeutic effect is present when the IC50 of the tumor inhibiting agent is lower with the A3 receptor antagonist.\n(§6) Quantitatively, the enhancement factor (EF) is calculated by dividing the IC50 value of the tumor inhibiting agent for a tumor cell line by the IC50 value of the agent with A3 receptor antagonist for the same cell line: [formula]"}, "[2]": {"system": "human colon carcinoma HT29 cell line", "experiment": "MTT growth inhibitory assay, HT29", "format": "cell-based", "details": "HT-29", "protocol": "as §3, §4, §5, §6"}, "[3]": {"system": "human pancreatic cancer Panc-1", "experiment": "MTT growth inhibitory assay, Panc-1", "format": "cell-based", "protocol": "as §3, §4, §5, §6"}, "[4]": {"system": "human lung carcinoma SKMES", "experiment": "MTT growth inhibitory assay, SKMES", "format": "cell-based", "protocol": "as §3, §4, §5, §6"}, "A375 melanoma cells": {"system": "A375 melanoma cells", "experiment": "Colony formation assay of A375 cells", "format": "cell-based, human", "details": "paclitaxel 0.75 ng/ml alone, 7 days", "procedure": "FIG. 2 illustrates colony formation assay of A375 cells. Cells were treated with different drugs and colonies were counted after 7 days. The values represent the mean ±SEM of four independent experiments. D=DMSO (control); T=paclitaxel, 0.75 ng/ml; M=MRE 3008F20, 10 μM; C=CI-IB-MECA, 10 μM; TM=paclitaxel plus MRE 3008F20; TC=paclitaxel plus CI-IB-MECA treated cells. *P<0.01 TM versus T. Analysis was by ANOVA followed by Dunnett's test.;\nControl plates received the same volume of DMSO alone. After 7 days of growth at 37° C. in humidified atmosphere containing 5% CO2, the cells were fixed with absolute methanol for 5′ and stained with 1/10 Giemsa/phosphate-buffered saline (PBS) staining solution for 10 minutes. Staining solution was removed and colonies of greater than 30 cells were scored as survivors. For each treatment, six individual wells were scored.\nColony formation assay experiments were performed on A375 melanoma cells treated with increasing concentration of paclitaxel (0.25-75 ng/ml). A3 stimulation is achieved with the selective agonist CI-IB-MECA while A3 blockade is obtained with the selective antagonist MRE 3008F20. […] (FIG. 2)"}, "A375 cells": {"system": "A375 cells", "experiment": "Flow cytometry (PI) G2/M accumulation and sub-G1 apoptosis, A375", "format": "cell-based, human", "details": "for EC50: Homo sapiens, A-375, 24 h", "procedure": "(§1) A375 and NCTC2544 adherent cells were trypsinized, mixed with floating cells, washed with PBS and permeabilised in 70% (vol/vol) ethanol/PBS solution at 4° C. for at least 24 hours. Jurkat, HeL023 and PBMC cells were centrifuged for 10 minutes at 1000×g. The cell pellet was then resuspended and permeabilised in 70% (vol/vol) ethanol/PBS solution at 4° C. for at least 24 hours. The cells were washed with PBS and the DNA was stained with a PBS solution, containing 20 μg/ml of propidium iodide and 100 μg/ml of RNAse, at room temperature for 30 minutes. Cells were analysed by FACScan (Becton-Dickinson) and the content of DNA was evaluated by the Cell-LISYS program (Becton-Dickinson). Cell distribution among cell cycle phases and apoptotic cells was evaluated as previously described (Secchiero et al., 2001). Briefly, the cell cycle distribution is shown as the percentage of cells containing 2n (G1 phase), 4n (G2 and M phases), 4n>x>2n. DNA amount (S phase) judged by propidium iodide staining. The apoptotic population is the percentage of cells with DNA content lower than 2n.\nCell proliferation and apoptosis are quantified by flow cytometer analysis after propidium-iodide (PI) DNA staining."}, "HeL023 cells": {"system": "HeL023 cells", "experiment": "Flow cytometry (PI) G2/M accumulation and sub-G1 apoptosis, HeL023", "format": "cell-based, human", "details": "DMSO (no antagonist); for EC50: Homo sapiens", "procedure": "as §1\n(§2) To verify the role of A3 receptor antagonists on paclitaxel and vindesine mediated alteration of cell proliferation and apoptosis, testing was performed with additional cell lines. […] Experimental conditions are similar to those for the A375 cell testing."}, "Jurkat cells": {"system": "Jurkat cells", "experiment": "Flow cytometry (PI) G2/M accumulation and sub-G1 apoptosis, Jurkat", "format": "cell-based, human", "details": "DMSO (no antagonist); for EC50: Homo sapiens", "procedure": "as §1, §2"}, "NCTC2544 cells": {"system": "NCTC2544 cells", "experiment": "Flow cytometry (PI) G2/M accumulation and sub-G1 apoptosis, NCTC2544", "format": "cell-based, human", "details": "NCTC 2544, DMSO (no antagonist); for EC50: Homo sapiens", "procedure": "as §1, §2"}, "PBMC blasts": {"system": "PBMC blasts", "experiment": "Flow cytometry (PI) G2/M accumulation, PBMC blasts", "format": "cell-based", "details": "Homo sapiens, DMSO (no antagonist)", "protocol": "Cells are passaged two or three times weekly at a ratio between 1:5 and 1:10. Lymphocytes were isolated from buffy coats kindly provided by the Blood Bank of the University Hospital of Ferrara. Blood donated by healthy volunteers, after informed consent for research was obtained. Lymphocytes were isolated by density gradient centrifugation (Ficoll/Histopaque 1.077 g/ml). The cells are stimulated with purified phytohemoagglutinin (1 μg/ml) and expanded in RPMI medium added of interleukin 2 (20 Units/ml) and 10% fetal calf serum.\nJurkat, HeL023 and PBMC cells were centrifuged for 10 minutes at 1000×g. The cell pellet was then resuspended and permeabilised in 70% (vol/vol) ethanol/PBS solution at 4° C. for at least 24 hours. The cells were washed with PBS and the DNA was stained with a PBS solution, containing 20 μg/ml of propidium iodide and 100 μg/ml of RNAse, at room temperature for 30 minutes. Cells were analysed by FACScan (Becton-Dickinson) and the content of DNA was evaluated by the Cell-LISYS program (Becton-Dickinson). Cell distribution among cell cycle phases and apoptotic cells was evaluated as previously described (Secchiero et al., 2001). Briefly, the cell cycle distribution is shown as the percentage of cells containing 2n (G1 phase), 4n (G2 and M phases), 4n>x>2n. DNA amount (S phase) judged by propidium iodide staining. […]"}, "[5]": {"details": "read-out: paclitaxel EC50 (G2/M accumulation)"}, "[6]": {"details": "read-out: vindesine EC50 (G2/M accumulation)"}},
  "note": "Where two headings read alike, the source gives them in different places.",
  "data": [
    {"smiles": "CC(=O)O[C@H]1C(=O)[C@@]2(C)[C@H]([C@H](OC(=O)c3ccccc3)[C@]3(O)C[C@H](OC(=O)[C@H](O)[C@@H](NC(=O)c4ccccc4)c4ccccc4)C(C)=C1C3(C)C)[C@]1(OC(C)=O)CO[C@@H]1C[C@@H]2O", "note": "[paclitaxel]", "values": [
      {"measurement": "IC50 of paclitaxel, A3 antagonist none", "setting": "[1]; A375, paclitaxel 0.0001-0.05 μg/ml, alone (control of each antagonist series)", "value": 4.2, "unit": "ng/mL"},
      {"measurement": "IC50", "setting": "[1]; A-375, A375, paclitaxel 0.0001-0.05 μg/ml, alone (control of each antagonist series), read-out: IC50 of paclitaxel, A3 antagonist none", "value": 4.4, "unit": "ng/mL"},
      {"measurement": "IC50", "setting": "[1]; A-375, A375, paclitaxel 0.0002-0.1 μg/ml, alone, read-out: IC50 of paclitaxel, A3 antagonist none", "value": 4.6, "unit": "ng/mL"},
      {"measurement": "IC50", "setting": "[1]; A-375, Human Melanoma A375, read-out: IC50 growth inhibition, agent used separately", "value": "4 ± 0.2", "unit": "ng/mL"},
      {"measurement": "IC50", "setting": "[2]; Human Colon Carcinoma HT29, read-out: IC50 growth inhibition, agent used separately", "value": "1.12 ± 0.3", "unit": "ng/mL"},
      {"measurement": "IC50", "setting": "[2]; Homo sapiens, HT29, paclitaxel 0.0001-0.05 μg/ml, alone, read-out: IC50 of paclitaxel, A3 antagonist none", "value": 2.5, "unit": "ng/mL"},
      {"measurement": "IC50", "setting": "[3]; Homo sapiens, Panc-1, paclitaxel 0.0001-0.05 μg/ml, alone, read-out: IC50 of paclitaxel, A3 antagonist none", "value": 2.9, "unit": "ng/mL"},
      {"measurement": "IC50", "setting": "[3]; Human Pancreatic Cancer Panc-1, read-out: IC50 growth inhibition, agent used separately", "value": "2.7 ± 0.3", "unit": "ng/mL"},
      {"measurement": "IC50", "setting": "[4]; Homo sapiens, SKMES, paclitaxel 0.0001-0.05 μg/ml, alone, read-out: IC50 of paclitaxel, A3 antagonist none", "value": 3.3, "unit": "ng/mL"},
      {"measurement": "IC50", "setting": "[4]; Human Lung Carcinoma SKMES, read-out: IC50 growth inhibition, agent used separately", "value": "2.6 ± 0.7", "unit": "ng/mL"},
      {"measurement": "colony formation, % of the control", "setting": "A375 melanoma cells", "value": 64, "unit": "%"},
      {"measurement": "paclitaxel ECMAX (sub-G1, maximal apoptosis)", "setting": "A375 cells; A375, DMSO (no antagonist)", "value": "6.00 ± 0.63", "unit": "ng/mL"},
      {"measurement": "EC50", "setting": "A375 cells; [5]", "value": "16.6 ± 2", "unit": "ng/mL"},
      {"measurement": "paclitaxel ECMAX (sub-G1)", "setting": "HeL023 cells", "value": "33.42 ± 3.55", "unit": "ng/mL"},
      {"measurement": "EC50", "setting": "HeL023 cells; [5]", "value": "50.6 ± 5.3", "unit": "ng/mL"},
      {"measurement": "paclitaxel ECMAX (sub-G1)", "setting": "Jurkat cells", "value": "3.32 ± 0.52", "unit": "ng/mL"},
      {"measurement": "EC50", "setting": "Jurkat cells; [5]", "value": "2.96 ± 0.31", "unit": "ng/mL"},
      {"measurement": "EC50", "setting": "NCTC2544 cells; [5]", "value": "2.69 ± 0.28", "unit": "ng/mL"},
      {"measurement": "paclitaxel ECMAX (sub-G1)", "setting": "NCTC2544 cells", "value": "2.69 ± 0.23", "unit": "ng/mL"},
      {"measurement": "EC50", "setting": "PBMC blasts; [5]", "value": "5.3 ± 0.6", "unit": "ng/mL"}
    ]},
    {"smiles": "CC[C@]1(O)C[C@@H]2CN(CCc3c([nH]c4ccccc34)[C@@](C(=O)OC)(c3cc4c(cc3OC)N(C)[C@H]3[C@@](O)(C(N)=O)[C@H](O)[C@]5(CC)C=CCN6CC[C@]43[C@@H]65)C2)C1", "note": "[vindesine]", "values": [
      {"measurement": "vindesine ECMAX (sub-G1, maximal apoptosis)", "setting": "A375 cells; A375, DMSO (no antagonist)", "value": "3.54 ± 0.42", "unit": "nM"},
      {"measurement": "EC50", "setting": "A375 cells; [6]", "value": "1.9 ± 0.2", "unit": "nM"},
      {"measurement": "vindesine ECMAX (sub-G1)", "setting": "HeL023 cells", "value": "33.11 ± 4.02", "unit": "nM"},
      {"measurement": "EC50", "setting": "HeL023 cells; [6]", "value": "25.8 ± 3.25", "unit": "nM"},
      {"measurement": "EC50", "setting": "Jurkat cells; [6]", "value": "0.93 ± 0.08", "unit": "nM"},
      {"measurement": "EC50", "setting": "NCTC2544 cells; [6]", "value": "0.89 ± 0.08", "unit": "nM"},
      {"measurement": "vindesine ECMAX (sub-G1)", "setting": "NCTC2544 cells", "value": "2.50 ± 0.27", "unit": "nM"},
      {"measurement": "EC50", "setting": "PBMC blasts; [6]", "value": "1.1 ± 0.9", "unit": "nM"}
    ]}
  ]
}
